# Test: Cytotoxicity against mouse EAC cells
# Assay type: functional
# Conditions: Ehrlich, read-out: ED50 (the source's name)
smiles,measurement,value
COn1c(Br)c2c3c(cccc31)[C@H]1C[C@@H](C)CN(C)[C@@H]1C2 [PIBOCIN B],EC50,25 µg/mL

# — ChEMBL document CHEMBL1156393, “Pibocin B, the first N-O-methylindole marine alkaloid, a metabolite from the Far-Eastern ascidian Eudistoma species” (2001)
